One data set has as its system control animals (N2). The data set is described as follows: Maximum tolerable dose in control animals. Further details: species or system C. elegans. To be noted: in vivo. As for the experimental part: Briefly, Netoglitazone stocks (5 mM in 100% DMSO) were used at an appropriate concentration to seed 9-cm NGM plates. Plates were then placed in a laminar flow hood at room temperature (22° C.) for up to 4 hours to dry. C. elegans cultures were then transferred onto media seeded with compound as L4 stage or Day 3 for late treatments and incubated at 24° for the whole experiment. Experiments were carried out at different Netoglitazone concentrations ranging from 0.05 to 500 μM in 1% DMSO. As controls, plates seeded only with 1% DMSO were used.

A further data set has as its system AD worms (GMC101). Briefly: Automated motility assay (WF-NTP) in AD worms. Type of data set: in vivo, C. elegans. As for the experimental part:
Standard conditions were used for the propagation of C. elegans (S. Brenner, The genetics of Caenorhabditis elegans. Genetics. 77, 71-94 (1974)). Briefly, the animals were synchronized by hypochlorite bleaching, hatched overnight in M9 buffer (3 g/l KH2PO4, 6 g/l Na2HPO4, 5 g/l NaCl, […]), and subsequently cultured at 20° C. on nematode growth medium (NGM) (CaCl2) 1 mM, MgSO4 1 mM, cholesterol 5 μg/mL, PBS Buffer (250 μM KH2PO4, 67.5 μM KCl, 3.425 mM of NaCl, pH 6), Agar 17 g/L, NaCl 3 g/1, casein 7.5 g/l) plates seeded with the E. coli strain OP50. Saturated cultures of OP50 were grown by inoculating 50 ml of LB medium (tryptone 10 g/l, NaCl 10 g/1, yeast extract 5 g/l) with OP50 and incubating the culture for 16 h at 37° C. NGM plates were seeded with bacteria by adding 350 μl of saturated OP50 to each plate and leaving the plates at 20° C. for 2-3 days. On day 3 after synchronisation, the animals were placed on NGM plates containing 5-fluoro-2′deoxy-uridine (FUDR) (75 μM, unless stated otherwise) to inhibit the growth of offspring.
GMC101 dvIs100 [unc-54p::A-beta-1-42::unc-54 3′UTR+mtl-2p::GFP]. mtl-2p::GFP produces constitutive expression of GFP in intestinal cells. unc-54p::A-beta-1-42 expresses full-length human Aβ42 peptide in body wall muscle cells that aggregates in vivo. […]
All C. elegans populations were cultured at 20° C. and developmentally synchronized from a 4 h egg-lay. At 64-72 h post-egg-lay (time zero), individuals were transferred to FUDR plates, and body movements were assessed over the times indicated. At different ages, the animals were washed off the plates with M9 buffer and spread over an OP-50 unseeded 9 cm plate, after which their movements were recorded at 20 fps using a recently developed microscopic procedure (M. Perni et al., Massively parallel C. elegans tracking provides multi-dimensional fingerprints for phenotypic discovery. J. Neurosci. Methods. 306, 57-67 (2018)) for 1 min. Up to 600 animals were counted in each experiment in duplicate unless stated otherwise. One experiment that is representative of the three or more measured in each series of experiments is shown, and videos were analysed using a custom-made tracking code (M. Perni et al., Massively parallel C. elegans tracking provides multi-dimensional fingerprints for phenotypic discovery. J. Neurosci. Methods. 306, 57-67 (2018)).
In order to screen for the effect of therapeutics in the most robust way, a wide field-of-view nematode-tracking platform (WF-NTP) was used, which enables the simultaneous investigation of multiple phenotypic readouts on large worm populations. The WF-NTP monitors up 5000 animals in parallel, and the phenotypical readout includes multiple parallel parameters.

Setting [1] is: administered at D3, read at D5 of adulthood.

Experimental findings from patent US20210145801A1, “THERAPY FOR PROTEIN MISFOLDING DISEASE” (WREN THERAPEUTICS LIMITED, priority 2018, published 2021) are described below.

SMILES strings stand for the structures. Entries after “also recorded” stand apart in the source; their conditions may differ.

Consider `O=C1NC(=O)C(Cc2ccc3cc(OCc4ccccc4F)ccc3c2)S1` (centres unmarked) [Netoglitazone], for which the “Maximum tolerable dose in control animals” value in the data set on control animals (N2) is less than 500 µM. In addition, in the data set with AD worms (GMC101) (setting [1]), the “Motility of AD worms after late administration” value is “increase of the worm's mobility; also recorded: improves motility”; the “Survival rate of AD worms after late administration” value was “increase of the worm's mobility and survival rate; also recorded: improves motility (i) and survival rates”. For the same molecule, the “Recovery of dysfunctional phenotype / mobility of AD worms” value with AD worms (GMC101) (administered at L4, 0.05-10 μM) is “dose dependent and statistically significant recovery in the dysfunctional phenotype”. Also, the “Concentration range of best/maximum protective effect on mobility” value with AD worms (GMC101) (administered at L4, D3 of adulthood) lay within 0.5 to 5 µM.
